The subject of test [1] is cabbage. The test can be described thus: Cabbage plant growth stimulation: fresh and dry weights. The format is in vivo. The following applies: 5, 15 or 50 ppm spray, FIGS. 1 and 2. As for the experimental part:
Market Prize, F1 cabbage seed, lot 88955, was purchased from Harris Seeds, Inc. (Rochester, N.Y.) and grown 2 plants per 4″×4″×4″ pot, 1 pot per experimental unit and 6 experimental units per each of 4 replications. The plants were spray-treated first at 2 true leaves and again 7 days later with 8 ml solution per pot.
The treatments included a non-treated control (NTC), 0.05% Breakthru® (a silicone-based surfactant obtained from Goldschmidt Chemical, Hopewell, Va.) control, and 5, 15 or 50 ppm of either Glypure® (F12; 99% high purity crystalline glycolic acid), or ammonia-neutralized Glypure® [F18; a 50% (w/v) solution made by neutralizing 70% high purity glycolic acid from DuPont with ammonium hydroxide to a pH of 4.4. Growth stimulation was assessed by measuring both the fresh and dry weights of the plants.

Test [2] concerns cabbage. The test can be described thus: Cabbage drought stress: fresh and dry weights. The test is classed as in vivo. The method, then:
Market Prize, F1 cabbage seed, lot 88955, as described in example 7, was treated identically as in example 7, except that drought stress was imposed by withholding water 7 days following the second spray and continuing to withhold water for 13 sequential days thereafter. Drought tolerance was assessed by measuring both the fresh and dried weights of the plants.

For the next test, the system named is Sclerotinia minor. The test can be described thus: Colony radius of plant pathogen on amended potato dextrose agar. The test is classed as cell-based. The following applies: in PDA, 4 days, about 23° C., FIG. 5. An excerpt:
Sclerotinia minor culture SaM-18 was received from Krishna Subbarro, Ph.D., Univ. Calif., Davis. Potato dextrose agar (PDA) powder was purchased from Baltimore Biological Laboratory, Inc. (BBL), ammonium glycolate and glycolic acid from DuPont Specialty Chemicals and BreakThru® surfactant from Goldschmidt Chemical Corp.
PDA was made, poured into sterile disposable petri dishes (100×15 mm) and inoculated with S. minor sclerotia to start new cultures on day zero. These cultures had reached an appropriate stage of maturation for use for use in the test after two weeks of growth. Multiple 1 liter containers of PDA were made and autoclaved on day 14. These PDA containers remained in the circulating water bath at 46° C. until the solutions were ready for addition (about 2 hrs.). The glycolic acid-containing compositions were added to the 46° C. PDA through a syringe-tip 0.2 μm-pore sterile filtration disc in a positive laminar-flow sterile hood and thoroughly mixed before returning to the 46° C. water bath to await pouring. Stacks of 22 dishes were poured for each medium type and allowed to solidify and cool overnight.
On day 15, soft, white to gray, sclerotial clumps of hyphae were picked from the culture dishes with heat sterilized forceps and one clump was transferred to the center of each test medium dish. Twenty dishes of each inoculated medium were stacked and replaced into the plastic sleeves they were originally packaged in for incubation at room temperature (about 23° C.). After 4 days of growth, some of the cultures had just reached the edges of the medium. The radius of each colony was measure in mm.
Treatments were water controls, 0.05% surfactant controls, 5, 15, 50, 75 and 100 ppm of glycolic acid (F12) and 5, 15, 50, 100 and 750 ppm of ammonia-neutralized glycolic acid (F18; i.e., ammonium glycolate).

This note sets out measurements from US6432883B1, “Methods of treating plants with glycolic acid” (Emerald BioAgriculture Corporation, priority 2000, dated 2002).

`N.O=C(O)CO` [F18, ammonium glycolate]: in the test on cabbage [1], the “plant growth (fresh and dry weights) compared to the controls” value was “statistically significantly stimulated plant growth”; the “plant growth compared to equivalent amounts of F12” value is given as “stimulated plant growth to a greater extent”. Besides, in the test on cabbage [2] (5, 15 and 50 ppm, plant weight), the “resistance to the effects of drought stress compared to equivalent amounts of F12” value is given as “statistically significantly greater effect”. The “fresh weight of the cabbage compared to controls” value with cabbage [2] (drought, water withheld 13 days, 5, 15, 50 ppm, FIG. 3) is on record as “statistically significantly increased”. In addition, in the test with cabbage [2] (drought, water withheld 13 days, 5, 15, 50 ppm, FIG. 4), the “dry weight of the cabbage compared to controls” value is “statistically significantly increased”. In the test on Sclerotinia minor, the “Sclerotinia growth compared to equivalent amounts of glycolic acid” value was “significantly more” and the “growth of Sclerotinia minor (colony radius) compared to controls” value is “statistically significantly increased the growth”.
